Measurements published in PubChem BioAssay AID1963959 (Molecular Pharmacology Branch, DTP, NCI, 2024).
Where “and” joins values, the source holds several entries; their conditions need not be identical. Equal entries are not always repeated.

System: T-47D spheroids with HUVEC/MSC, viability
Assay: Anticancer human tumor T-47D cell line growth inhibition [PI3K];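 further: spheroids exposed to agents for seven days before reading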;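 on viability, T/C: percent of DMSO vehicle control luminescence so 100% = untreated growth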
Settings: for viability, T/C: stronger effect = lower value
Summary of the method: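 We assembled tumor spheroids that included a stromal compartment of HUVEC and MSCs, then exposed them to targeted agents alone and together with PI3K pathway inhibitors. Concentration series descended by half-log from clinically achievable Cmax levels. Viability served as the endpoint.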

[1] = curve of first compound, second compound 0.00316 µM
[2] = curve of first compound, second compound 0.01 µM
[3] = curve of first compound, second compound 0.0316 µM
[4] = curve of first compound, second compound 0.1 µM
[5] = curve of first compound, second compound 0.316 µM
[6] = curve of first compound, second compound 1 µM
[7] = second compound 0.00316 µM, first compound 0.000316 µM
[8] = second compound 0.00316 µM, first compound 0.001 µM
[9] = second compound 0.00316 µM, first compound 0.00316 µM
[10] = second compound 0.00316 µM, first compound 0.01 µM
[11] = second compound 0.00316 µM, first compound 0.0316 µM
[12] = second compound 0.00316 µM, first compound 0.1 µM
[13] = second compound 0.01 µM, first compound 0.000316 µM
[14] = second compound 0.01 µM, first compound 0.001 µM
[15] = second compound 0.01 µM, first compound 0.00316 µM
[16] = second compound 0.01 µM, first compound 0.01 µM
[17] = second compound 0.01 µM, first compound 0.0316 µM
[18] = second compound 0.01 µM, first compound 0.1 µM
[19] = second compound 0.0316 µM, first compound 0.000316 µM
[20] = second compound 0.0316 µM, first compound 0.001 µM
[21] = second compound 0.0316 µM, first compound 0.00316 µM
[22] = second compound 0.0316 µM, first compound 0.01 µM
[23] = second compound 0.0316 µM, first compound 0.0316 µM
[24] = second compound 0.0316 µM, first compound 0.1 µM
[25] = second compound 0.1 µM, first compound 0.000316 µM
[26] = second compound 0.1 µM, first compound 0.001 µM
[27] = second compound 0.1 µM, first compound 0.00316 µM
[28] = second compound 0.1 µM, first compound 0.01 µM
[29] = second compound 0.1 µM, first compound 0.0316 µM
[30] = second compound 0.1 µM, first compound 0.1 µM
[31] = second compound 0.316 µM, first compound 0.000316 µM
[32] = second compound 0.316 µM, first compound 0.001 µM
[33] = second compound 0.316 µM, first compound 0.00316 µM
[34] = second compound 0.316 µM, first compound 0.01 µM
[35] = second compound 0.316 µM, first compound 0.0316 µM
[36] = second compound 0.316 µM, first compound 0.1 µM
[37] = second compound 1 µM, first compound 0.000316 µM
[38] = second compound 1 µM, first compound 0.001 µM
[39] = second compound 1 µM, first compound 0.00316 µM
[40] = second compound 1 µM, first compound 0.01 µM
[41] = second compound 1 µM, first compound 0.0316 µM
[42] = second compound 1 µM, first compound 0.1 µM
[43] = curve of first compound, second compound 3.16 µM
[44] = curve of first compound, second compound 10 µM
[45] = second compound 3.16 µM, first compound 0.0316 µM
[46] = second compound 3.16 µM, first compound 0.1 µM
[47] = second compound 10 µM, first compound 0.0316 µM
[48] = second compound 10 µM, first compound 0.1 µM

CC(=O)c1c(C)c2cnc(Nc3ccc(N4CCNCC4)cn3)nc2n(C2CCCC2)c1=O + COc1c(OCCCN2CCOCC2)ccc2c3n(c(=NC(=O)c4cnc(N)nc4)nc12)CCN3
IC50 [1]: > 0.1 µM | IC50 [2]: > 0.1 µM | IC50 [3]: 0.0397 µM | IC50 [4]: < 0.000316 µM | IC50 [5]: < 0.000316 µM | IC50 [6]: < 0.000316 µM | viability, T/C [7]: 120% | viability, T/C [8]: 118% | viability, T/C [9]: 95.3% | viability, T/C [10]: 95.6% | viability, T/C [11]: 80.5% | viability, T/C [12]: 85% | viability, T/C [13]: 89.3% | viability, T/C [14]: 104% | viability, T/C [15]: 95.5% | viability, T/C [16]: 83.4% | viability, T/C [17]: 84.3% | viability, T/C [18]: 74.2% | viability, T/C [19]: 71.3% | viability, T/C [20]: 64.8% | viability, T/C [21]: 74.2% | viability, T/C [22]: 68.3% | viability, T/C [23]: 51.8% | viability, T/C [24]: 42.7% | viability, T/C [25]: 35.3% | viability, T/C [26]: 42.8% | viability, T/C [27]: 34% | viability, T/C [28]: 32.9% | viability, T/C [29]: 26.6% | viability, T/C [30]: 27.1% | viability, T/C [31]: 14.5% | viability, T/C [32]: 17.1% | viability, T/C [33]: 19.7% | viability, T/C [34]: 13.2% | viability, T/C [35]: 15% | viability, T/C [36]: 13.6% | viability, T/C [37]: 5.84% | viability, T/C [38]: 7.18% | viability, T/C [39]: 7.6% | viability, T/C [40]: 5.71% | viability, T/C [41]: 7.91% | viability, T/C [42]: 6.26%

C=CC(=O)N1CCN(c2nc(=O)n(-c3c(C)ccnc3C(C)C)c3nc(-c4c(O)cccc4F)c(F)cc23)C(C)C1 (configuration not stated)
viability, T/C (compound 0.0316 µM): 94.8% (2×) and 125% and 115% | viability, T/C (compound 0.1 µM): 96.8% [middle of 4 runs] | viability, T/C (compound 1 µM): 98.7% and 126% (2×) and 94.5% | IC50 (curve of compound): > 10 µM

CC(=O)c1c(C)c2cnc(Nc3ccc(N4CCNCC4)cn3)nc2n(C2CCCC2)c1=O
viability, T/C (compound 0.000316 µM): 94.9% [middle of 4 runs] | viability, T/C (compound 0.001 µM): 98% [middle of 4 runs] | viability, T/C (compound 0.0316 µM): 96.2% [middle of 4 runs] | viability, T/C (compound 0.1 µM): 86.7% [middle of 4 runs] | IC50 (curve of compound): > 0.1 µM

CC(C)n1nc(-c2ccc3oc(N)nc3c2)c2c(N)ncnc21 + CC(Nc1ccc2c(c1)OCCn1cc(N3C(=O)OCC3C(F)F)nc1-2)C(N)=O
IC50 [1]: 0.0695 µM | IC50 [2]: 0.0596 µM | IC50 [3]: 0.0514 µM | IC50 [4]: 0.0284 µM | IC50 [5]: 0.00564 µM | IC50 [6]: 0.00228 µM | viability, T/C [7]: 112% | viability, T/C [8]: 98% | viability, T/C [9]: 110% | viability, T/C [10]: 91.2% | viability, T/C [11]: 88.6% | viability, T/C [12]: 33% | viability, T/C [13]: 89.2% | viability, T/C [14]: 97.4% | viability, T/C [15]: 94.4% | viability, T/C [16]: 83.2% | viability, T/C [17]: 72.5% | viability, T/C [18]: 32.2% | viability, T/C [19]: 94.6% | viability, T/C [20]: 101% | viability, T/C [21]: 84.5% | viability, T/C [22]: 82.4% | viability, T/C [23]: 70.5% | viability, T/C [24]: 25.5% | viability, T/C [25]: 76% | viability, T/C [26]: 90.8% | viability, T/C [27]: 89.9% | viability, T/C [28]: 71.1% | viability, T/C [29]: 48.5% | viability, T/C [30]: 17% | viability, T/C [31]: 68.2% | viability, T/C [32]: 65.1% | viability, T/C [33]: 56.5% | viability, T/C [34]: 41.8% | viability, T/C [35]: 29.9% | viability, T/C [36]: 5.87% | viability, T/C [37]: 57.6% | viability, T/C [38]: 56.2% | viability, T/C [39]: 47.9% | viability, T/C [40]: 34.4% | viability, T/C [41]: 18.8% | viability, T/C [42]: 3.47%

CC(C)n1nc(-c2ccc3oc(N)nc3c2)c2c(N)ncnc21 + Cc1nc(NC(=O)N2CCCC2C(N)=O)sc1-c1ccnc(C(C)(C)C(F)(F)F)c1
IC50 [3]: 0.0726 µM | IC50 [4]: 0.0608 µM | IC50 [5]: 0.0525 µM | IC50 [6]: 0.0267 µM | IC50 [43]: 0.00907 µM | IC50 [44]: < 0.000316 µM | viability, T/C [19]: 106% | viability, T/C [20]: 94.2% | viability, T/C [21]: 95.9% | viability, T/C [22]: 95.9% | viability, T/C [23]: 78.8% | viability, T/C [24]: 38.7% | viability, T/C [25]: 110% | viability, T/C [26]: 87.2% | viability, T/C [27]: 99.3% | viability, T/C [28]: 109% | viability, T/C [29]: 79% | viability, T/C [30]: 27.9% | viability, T/C [31]: 101% | viability, T/C [32]: 98.9% | viability, T/C [33]: 82.3% | viability, T/C [34]: 92.7% | viability, T/C [35]: 67.4% | viability, T/C [36]: 26.9% | viability, T/C [37]: 89% | viability, T/C [38]: 93.2% | viability, T/C [39]: 86.3% | viability, T/C [40]: 70.7% | viability, T/C [41]: 47% | viability, T/C [42]: 21.2% | viability, T/C (second compound 3.16 µM, first compound 0.000316 µM): 62.9% | viability, T/C (second compound 3.16 µM, first compound 0.001 µM): 68.3% | viability, T/C (second compound 3.16 µM, first compound 0.00316 µM): 64.6% | viability, T/C (second compound 3.16 µM, first compound 0.01 µM): 42.7% | viability, T/C [45]: 33.1% | viability, T/C [46]: 6.08% | viability, T/C (second compound 10 µM, first compound 0.000316 µM): 37.5% | viability, T/C (second compound 10 µM, first compound 0.001 µM): 40.2% | viability, T/C (second compound 10 µM, first compound 0.00316 µM): 33.1% | viability, T/C (second compound 10 µM, first compound 0.01 µM): 21.7% | viability, T/C [47]: 12.8% | viability, T/C [48]: 2.67%

CC1(C)CCC(Nc2ncc(C(F)(F)F)c(-c3c[nH]c4c(P(C)(C)=O)c(C#N)ccc34)n2)CN1 (configuration not stated) + Cc1nc(NC(=O)N2CCCC2C(N)=O)sc1-c1ccnc(C(C)(C)C(F)(F)F)c1
IC50 [3]: 8.08 µM | IC50 [4]: > 10 µM | IC50 [5]: 4.92 µM | IC50 [6]: 3.39 µM | IC50 [43]: < 0.0316 µM | IC50 [44]: < 0.0316 µM | viability, T/C [23]: 73.6% | viability, T/C [24]: 64.5% | viability, T/C (second compound 0.0316 µM, first compound 0.316 µM): 73.7% | viability, T/C (second compound 0.0316 µM, first compound 1 µM): 72.4% | viability, T/C (second compound 0.0316 µM, first compound 3.16 µM): 72.2% | viability, T/C (second compound 0.0316 µM, first compound 10 µM): 45.1% | viability, T/C [29]: 68.7% | viability, T/C [30]: 65.8% | viability, T/C (second compound 0.1 µM, first compound 0.316 µM): 65.6% | viability, T/C (second compound 0.1 µM, first compound 1 µM): 64.6% | viability, T/C (second compound 0.1 µM, first compound 3.16 µM): 70.9% | viability, T/C (second compound 0.1 µM, first compound 10 µM): 42.9% | viability, T/C [35]: 67% | viability, T/C [36]: 57.7% | viability, T/C (second compound 0.316 µM, first compound 0.316 µM): 55% | viability, T/C (second compound 0.316 µM, first compound 1 µM): 55.7% | viability, T/C (second compound 0.316 µM, first compound 3.16 µM): 59.2% | viability, T/C (second compound 0.316 µM, first compound 10 µM): 35.9% | viability, T/C [41]: 56.7% | viability, T/C [42]: 58.1% | viability, T/C (second compound 1 µM, first compound 0.316 µM): 45.2% | viability, T/C (second compound 1 µM, first compound 1 µM): 44.2% | viability, T/C (second compound 1 µM, first compound 3.16 µM): 54.4% | viability, T/C (second compound 1 µM, first compound 10 µM): 22.7% | viability, T/C [45]: 47.3% | viability, T/C [46]: 41.3% | viability, T/C (second compound 3.16 µM, first compound 0.316 µM): 42.3% | viability, T/C (second compound 3.16 µM, first compound 1 µM): 38.6% | viability, T/C (second compound 3.16 µM, first compound 3.16 µM): 40.1% | viability, T/C (second compound 3.16 µM, first compound 10 µM): 8.96% | viability, T/C [47]: 30.3% | viability, T/C [48]: 29.4% | viability, T/C (second compound 10 µM, first compound 0.316 µM): 26.6% | viability, T/C (second compound 10 µM, first compound 1 µM): 27.5% | viability, T/C (second compound 10 µM, first compound 3.16 µM): 20.8% | viability, T/C (second compound 10 µM, first compound 10 µM): 3.07%
